Source: patent publication US5202348A, “Thiarubrine antifungal agents” (The University of British Columbia, priority 1990, dated 1993)
Values after ≈ are worked out from the molar mass of the structure shown. Like-named read-outs stand apart in the source and are kept apart here.

What was measured:
[1] = system: C. albicans; assay: LC50 (24 hrs.), doses required to inhibit growth in 50%, different method; format: cell-based, Candida albicans; conditions: for IC50: Candida albicans, 24 hrs.
Description: Doses Required to Inhibit Growth of C. albicans
in 50% During 24 hrs. (ng/ml)

[2] = system: P815 mastocytoma; assay: as above; format: cell-based; conditions: Mus musculus, P815, 24 h
[3] = system: Candida; assay: Anti-Candida activity (summary); format: cell-based; conditions: Table 14;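 further: Letter grades where Y means active and y means less active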
[4] = system: Aspergillus; assay: Anti-Aspergillus activity (summary); format: cell-based; conditions: Table 14;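 further: Letter grades where Y means active and y means less active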
[5] = system: bacteria; assay: Anti-bacterial activity (summary); format: cell-based; conditions: Table 14
[6] = system: C. albicans; assay: Growth inhibition of C. albicans during 24 hours exposure; format: cell-based, Candida albicans; conditions: 24 hours exposure; for IC50: Candida albicans
Procedure: (§1) Doses inhibiting growth in 50% were estimated by plotting concentration o
(§2) a logarithmic scale and percent of growth inhibition for 24 hours exposur
(§3) on a probability scale.

[7] = Growth inhibition of P815 mastocytoma during 24 hours exposure; format: cell-based, Mouse; conditions: mouse, p815 cells
Procedure: (§4) P815 = Mouse mastocytoma […]
as §2, §3

[8] = system: P815; assay: as above; format: cell-based, Mouse; conditions: 24 hours exposure
Procedure: as §4, §2, §3

[9] = Growth inhibition of L1210 during 24 hours exposure; format: cell-based, Mouse; conditions: mouse, l1210 cells; Table 2; read-out: Toxicity Index, LC50 L1210 / C. albicans
Procedure: (§5) L1210 = Mouse lymphocytic leukemia
as §1, §2, §3

[10] = system: L1210; assay: as above; format: cell-based, Mouse; conditions: Mus musculus, L1210; 24 hours exposure; Table 1; read-out: Concentration causing 50% growth inhibition
Procedure: as §5, §1, §2, §3

[11] = Growth inhibition of WEHI-3 during 24 hours exposure; format: cell-based, Mouse; conditions: mouse, wehi-3 cells; Table 2; read-out: Toxicity Index, LC50 WEHI-3 / LC50 C. albicans
Procedure: (§6) WEHl3 = Mouse myelomonocyte
as §1, §2, §3

[12] = system: WEHI-3; assay: as above; format: cell-based, Mouse; conditions: Mus musculus, WEHI-3; 24 hours exposure; Table 1; read-out: Concentration causing 50% growth inhibition
Procedure: as §6, §1, §2, §3

[13] = Growth inhibition of 3T3 during 24 hours exposure; format: cell-based, Mouse; conditions: mouse, 3t3 cells; Table 2; read-out: Toxicity Index, LC50 3T3 / LC50 C. albicans
Procedure: (§7) 3T3 = Mouse fibroblasts
as §1, §2, §3

[14] = system: 3T3; assay: Growth inhibition of 3T3 during 24 hours exposure; format: cell-based, Mouse; conditions: Mus musculus, NIH3T3; 24 hours exposure; Table 1; read-out: Concentration causing 50% growth inhibition
Procedure: as §7, §1, §2, §3

[15] = system: E. coli; assay: Growth inhibition of E. coli during 24 hours exposure; format: cell-based, Escherichia coli; conditions: 24 hours exposure, Table 4
Procedure: as §1, §2, §3

[16] = system: P. aeruginosa; assay: Growth inhibition of P. aeruginosa during 24 hours exposure; format: cell-based, Pseudomonas aeruginosa; conditions: 24 hours exposure, Table 4
Procedure: as §1, §2, §3

[17] = system: Aspergillus fumigatus; assay: Sensitivity of Aspergillus fumigatus, agar diffusion method; format: cell-based; conditions: disc diameter 6 mm, read-out: Zone of Growth Inhibition
Description: Results were obtained by agar diffusion method. Disc diameter - 6 mm. -* = no zone over disc diameter.

[18] = system: C. albicans; assay: Growth inhibition of C. albicans during 24 hours exposure; format: cell-based, Candida albicans; conditions: 24 hours exposure, Table 3
[19] = system: E. coli; assay: Growth inhibition of E. coli during 24 hours exposure; format: cell-based, Escherichia coli; conditions: 24 hours exposure, Table 3
[20] = system: P. aeruginosa; assay: Growth inhibition of P. aeruginosa during 24 hours exposure; format: cell-based, Pseudomonas aeruginosa; conditions: for Minimal concentration causing 100% growth inhibition: Table 3
[21] = system: murine cytomegalovirus; conditions: only in presence of long wave ultraviolet radiation; cited from earlier work
[22] = system: Sindbis virus; conditions: only in presence of long wave ultraviolet radiation; cited from earlier work
[23] = system: murine cytomegalovirus and Sindbis virus; conditions: phototoxic activity; cited from earlier work
[24] = system: above organisms, as well as CHO cells; conditions: UV-A light required; cited from earlier work
[25] = Table 13, read-out: Lc50 24 hrs.
[26] = Table 7, read-out: LC50 (24 hrs.), dose required to inhibit growth in 50%

CC#CC1=CC=C(C#CC#CC(Cl)CO)SS1 (stereo not drawn) [Thiarubrine F]
Inhibition of growth of Candida albicans [1]: nanogram/ml range
IC50 [1, 25]: 0.006 µg/mL (≈ 0.0214 µM)
IC50 ([2]; read-out: Lc50 24 hrs.): 0.14 µg/mL (≈ 0.499 µM)
Anti-Candida [3]: Y
Anti-Aspergillus [4]: Y
Anti-bacterial [5]: Y

CC#CC1=CC=C(C#CC#CC(O)CO)SS1 (stereo not drawn) [Thiarubrine E]
IC50 ([6]; Table 1, read-out: Concentration causing 50% growth inhibition): 0.0014 µg/mL (≈ 0.00534 µM)
IC50 ([6]; Table 4, read-out: Minimal concentration causing 50% growth inhibition): 0.0014 µg/mL (≈ 0.00534 µM)
selectivity ratio at 24 h ([7]; 50% growth inhibition, Table 4, read-out: Ratio of concentration needed to inhibit growth in 50%, P815 vs C. albicans): 17
selectivity ratio at 24 h ([7]; 100% growth inhibition, Table 3, read-out: Ratio of minimal concentration causing 100% growth inhibition, P815 line vs C. albicans): 65
selectivity ratio at 24 h ([7]; Table 2, read-out: Toxicity Index, LC50 P815 / LC50 C. albicans): 17
IC50 ([8]; Mus musculus, P815, Table 1, read-out: Concentration causing 50% growth inhibition): 0.024 µg/mL (≈ 0.0915 µM)
IC100 ([8]; Mus musculus, P815, Table 3, read-out: Minimal concentration causing 100% growth inhibition): 0.312 µg/mL
IC50 ([8]; Mus musculus, P815, Table 4, read-out: Minimal concentration causing 50% growth inhibition): 0.024 µg/mL (≈ 0.0915 µM)
selectivity ratio at 24 h [9]: 19
IC50 [10]: 0.027 µg/mL (≈ 0.103 µM)
selectivity ratio at 24 h [11]: 28
IC50 [12]: 0.04 µg/mL (≈ 0.152 µM)
selectivity ratio at 24 h [13]: 86
IC50 [14]: 0.12 µg/mL (≈ 0.457 µM)
IC50 ([15]; Escherichia coli, read-out: Minimal concentration causing 50% growth inhibition): 0.015 µg/mL (≈ 0.0572 µM)
IC50 ([16]; Pseudomonas aeruginosa, read-out: Minimal concentration causing 50% growth inhibition): 0.28 µg/mL (≈ 1.07 µM)
zone of inhibition at 0.01 µg/disc ([17]; 10 ng/disc): 17 mm
zone of inhibition at 0.1 µg/disc ([17]; 100 ng/disc): 36 mm
zone of inhibition at 1 µg/disc ([17]; 1,000 ng/disc): 50 mm
zone of inhibition at 10 µg/disc ([17]; 10,000 ng/disc): 50 mm
Inhibition of growth of Candida albicans [1]: nanogram/ml range
IC50 [1, 26]: 0.006 µg/mL (≈ 0.0229 µM)
IC50 ([2]; read-out: LC50 (24 hrs.), dose required to inhibit growth in 50%): 0.028 µg/mL (≈ 0.107 µM)
Anti-Candida [3]: Y
Anti-Aspergillus [4]: Y
Anti-bacterial [5]: Y
MIC ([18]; Candida albicans, read-out: Minimal concentration causing 100% growth inhibition): 0.0048 µg/mL (≈ 0.0183 µM)
MIC ([19]; Escherichia coli, read-out: Minimal concentration causing 100% growth inhibition): 0.019 µg/mL (≈ 0.0724 µM)
MIC ([20]; Pseudomonas aeruginosa, Table 3, read-out: Minimal concentration causing 100% growth inhibition): 0.625 µg/mL (≈ 2.38 µM)

c1csc(-c2ccc(-c3cccs3)s2)c1 [alpha-terthienyl]
Toxicity to virus [21]: extremely toxic
Toxicity to virus [22]: extremely toxic
Order of potency [23]: alpha-terthienyl thiarubrine-A > phenylheptatriyne > ACBP-thiophene > thiophene-A

CC#CC1=CC=C(C#CC#CC(O)CCl)SS1 (stereo not drawn) [Thiarubrine G]
Inhibition of growth of Candida albicans [1]: nanogram/ml range
IC50 [1, 25]: 0.008 µg/mL (≈ 0.0285 µM)
IC50 ([2]; read-out: Lc50 24 hrs.): 0.09 µg/mL (≈ 0.321 µM)
Anti-Candida [3]: Y
Anti-Aspergillus [4]: Y
Anti-bacterial [5]: Y

CC#Cc1ccc(C#CC#CC(O)CO)s1 (stereo not drawn) [Thiophene E]
Minimal concentration causing 50% growth inhibition ([6]; Table 4): 4.5 µg/mL
Minimal concentration causing 100% growth inhibition ([8]; Table 3): > 5.0 µg/mL
Minimal concentration causing 50% growth inhibition ([8]; Table 4): 4.0 µg/mL
Minimal concentration causing 50% growth inhibition [15]: > 5.0 µg/mL
Minimal concentration causing 50% growth inhibition [16]: > 5.0 µg/mL
Minimal concentration causing 100% growth inhibition [18]: > 5.0 µg/mL
Minimal concentration causing 100% growth inhibition [19]: > 5.0 µg/mL
Minimal concentration causing 100% growth inhibition [20]: > 5.0 µg/mL

C=CC#CC#Cc1ccc(C#CC)s1 [thiophene A]
Phototoxicity [24]: phototoxic, requiring UV-A light for biological activity
Order of potency [23]: alpha-terthienyl thiarubrine-A > phenylheptatriyne > ACBP-thiophene > thiophene-A

C=CC#CC1=CC=C(C#CC#CC)SS1 [Thiarubrine B, 3 (pent-3-yn-1-ynyl) 6 (3-buten-1-ynyl)-1,2-dithiacyclohexa-3,5-diene, reference compound]
Anti-Candida [3]: Y
Anti-Aspergillus [4]: Y
Anti-bacterial [5]: Y

C=C/C=C/C#CC1=CC=C(C#CC)SS1 [Thiarubrine C, reference compound]
Anti-Candida [3]: Y
Anti-Aspergillus [4]: Y
Anti-bacterial [5]: Y

Clc1ccc(COC(Cn2ccnc2)c2ccc(Cl)cc2Cl)cc1 (stereo not drawn) [Econazole, reference compound]
IC50 [1, 26]: 0.056 µg/mL (≈ 0.147 µM)

Gentamycin [reference compound]
Minimal concentration causing 50% growth inhibition [15]: 0.37 µg/mL
Minimal concentration causing 50% growth inhibition [16]: 1.0 µg/mL
Minimal concentration causing 100% growth inhibition [19]: 1.25 µg/mL
Minimal concentration causing 100% growth inhibition [20]: 2.5 µg/mL

C=CC#CC#CC1=CC=C(C#CCO)SS1 [Thiarubrine H]
Inhibition of growth of Candida albicans [1]: nanogram/ml range
IC50 [1, 25]: 0.004 µg/mL (≈ 0.0164 µM)
IC50 ([2]; read-out: Lc50 24 hrs.): 0.059 µg/mL (≈ 0.241 µM)
Anti-Candida [3]: Y
